Assay results reported in ChEMBL document CHEMBL1136271, “Design and synthesis of potent, orally bioavailable dihydroquinazolinone inhibitors of p38 MAP kinase” (Bioorg Med Chem Lett, 2003).

Columns and labels:
Assay type in all cases: ADME, organism-based
[1] = Plasma clearance in rat; conditions: read-out: Clp
[2] = Volume distribution in rat; conditions: in vivo
[3] = Half-life in rat; conditions: in vivo
[4] = Oral bioavailability in rat; conditions: in vivo
[5] = Area under curve was determined in rat after PO administration; design: concentration or dose not given beside the values; conditions: in vivo

Row | clearance [1] [mL/min/kg] | Vd [2] [L/kg] | half-life [3] [h] | bioavailability [4] [%] | AUC [5] [µM·h] | Compound
1 | 35.2 | 6 | 2.2 | 67.7 | 0.58 | CC(C)(C)N1CCC(c2cc(-c3ccc(F)cc3Cl)c3c(c2)N(c2c(Cl)cccc2Cl)C(=O)NC3)CC1
2 | 50.9 | 6.3 | 1.9 | 22.6 | 0.15 | O=C1NCc2c(-c3ccc(F)cc3Cl)cc(C3CCN(CC4CC4)CC3)cc2N1c1c(Cl)cccc1Cl
3 | 181 | 21.4 | 2.5 | 0 |  | O=C1NCc2c(-c3ccccc3Cl)cc(C3CCNCC3)cc2N1c1c(Cl)cccc1Cl
4 | 56.3 | 7.5 | 2.2 | 20 | 0.11 | CCN1CCC(c2cc(-c3ccc(F)cc3Cl)c3c(c2)N(c2c(Cl)cccc2Cl)C(=O)NC3)CC1
5 | 72.3 | 7.8 | 2 | 0 |  | O=C1NCc2c(-c3ccc(F)cc3Cl)cc(C3CCNCC3)cc2N1c1c(Cl)cccc1Cl
6 | 84.8 | 12.2 | 1.9 | 16 | 0.06 | CC(C)N1CCC(c2cc(-c3ccc(F)cc3Cl)c3c(c2)N(c2c(Cl)cccc2Cl)C(=O)NC3)CC1
7 | 51.7 | 8.1 | 2.5 | 59.3 | 0.39 | O=C1NCc2c(-c3ccc(F)cc3Cl)cc(C3CCN(C4CC4)CC3)cc2N1c1c(Cl)cccc1Cl
8 | 58.6 | 13.6 | 3.3 | 4.3 | 0.02 | O=C1NCc2c(-c3ccc(F)cc3F)cc(C3CCNCC3)cc2N1c1c(Cl)cccc1Cl
9 | 24.2 | 2.5 | 1.6 | 11.6 | 0.14 | O=C1NCc2c(-c3ccc(F)cc3Cl)cc(C3CCN(CC4CCC4)CC3)cc2N1c1c(Cl)cccc1Cl
10 | 140 | 18.6 | 2.8 | 15.7 | 0.04 | O=C1NCc2c(-c3ccc(F)cc3Cl)cc(CN3CCNCC3)cc2N1c1c(Cl)cccc1Cl
11 | 31.1 | 4.7 | 2 | 38 | 0.36 | CC(C1CC1)N1CCC(c2cc(-c3ccc(F)cc3Cl)c3c(c2)N(c2c(Cl)cccc2Cl)C(=O)NC3)CC1 (configuration not stated)
12 | 116 | 21 | 3 | 6.3 | 0.02 | O=C1NCc2c(-c3ccccc3Cl)cc(OC3CCNCC3)cc2N1c1c(Cl)cccc1Cl
13 | 34.4 | 4.3 | 1.6 | 22.7 | 0.22 | O=C1NCc2c(-c3ccccc3Cl)cc(N3CCNCC3)cc2N1c1c(Cl)cccc1Cl
14 | 49.8 | 5.3 | 1.5 | 9.2 | 0.06 | CN1CCC(c2cc(-c3ccc(F)cc3Cl)c3c(c2)N(c2c(Cl)cccc2Cl)C(=O)NC3)CC1
15 | 94.7 | 12.8 | 2.3 | 1.5 |  | O=C(c1cc(-c2ccc(F)cc2F)c2c(c1)N(c1c(Cl)cccc1Cl)C(=O)NC2)N1CCNCC1
16 | 53.7 | 6.6 | 1.7 | 24.7 | 0.14 | O=C1NCc2c(-c3ccc(F)cc3Cl)cc(C3CCN(C4CCC4)CC3)cc2N1c1c(Cl)cccc1Cl
